The inhibition is the change of the read-out against control, counted positive when it falls. One may read the CC50 as the concentration that lowers cell viability or growth by half. A higher CC50 goes with lower toxicity to the cells. One may read the % inhibition as the share of the control response that was lost under treatment. Low values mean little suppression, high ones strong suppression.

One data set has as its system HIV-IIIb. The data set can be described thus: Test A: Antiviral assay in MT4 cells. The format is cell-based, HIV-1. The note with it: MT-4 cells infected with HIV-IIIb, 5 days, CellTiter-Glo; for inhibition at 2 µM: Human immunodeficiency virus 1, IIIB, MT4, 120 h, read-out: % inhibition at 2 μM, percent inhibition of virus-induced cell killing, from dose response curve at 2 uM drug. On the technique in general: In ATP-based viability assays light output follows the ATP content of the culture.

Another data set is described as follows: in vitro. The note with it: human, uninfected MT-4 cells, CC50 (nM), same protocol as Test A, CellTiter-Glo. An outline of the steps:
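Cytoprotection read-out: CellTiter-Glo chemiluminescence after 5 days at 37 °C of HIV-IIIb-infected MT-4 cells (m.o.i. 0.003) with compound in 10-point 3-fold dilutions, quadruplicate, 10% FBS. Cytotoxicity (CC50) measured identically without virus.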

On to `NC(=O)c1cc(-c2cccnc2[C@H](Cc2cc(F)cc(F)c2)NC(=O)[C@@H]2CC[C@H](c3ccccc3)N2)ccc1F` [Example 182, (2S,5R)—N—((S)-1-(3-(3-carbamoyl-4-fluorophenyl)pyridin-2-yl)-2-(3,5-difluorophenyl)ethyl)-5-phenylpyrrolidine-2-carboxamide], for which, in the data set with HIV-IIIb, the inhibition at 2 µM stood at 8%. The CC50 at 5 days in the data set “in vitro” came to 51000 nM.
Taken in the same sequence, the figures for `NC(=O)c1cc(-c2cccnc2[C@H](Cc2cc(F)cc(F)c2)NC(=O)[C@H]2CC[C@@H](c3ccccc3)N2)ccc1F` [Example 183, (2R,5S)—N—((S)-1-(3-(3-carbamoyl-4-fluorophenyl)pyridin-2-yl)-2-(3,5-difluorophenyl)ethyl)-5-phenylpyrrolidine-2-carboxamide] were 0% and 35200 nM.
In the same order, the values of `Cc1[nH]nc(-c2ccccc2)c1CC(=O)N[C@@H](Cc1cc(F)cc(F)c1)c1ncccc1-c1ccc(F)c(C(N)=O)c1` [Example 184, (S)-5-(2-(2-(3,5-difluorophenyl)-1-(2-(5-methyl-3-phenyl-1H-pyrazol-4-yl)acetamido)ethyl)pyridin-3-yl)-2-fluorobenzamide] are 5% and 43200 nM.
With `O=C(Cn1nc(C(F)F)c2c1C(F)(F)C1CC21)N[C@@H](Cc1cc(F)cc(F)c1)c1ncncc1-c1cccc2cnccc12` (stereo partly drawn) [Example 185C, 2-(3-(difluoromethyl)-5,5-difluoro-3b,4,4a,5-tetrahydro-1H-cyclopropa[3,4]cyclopenta[1,2-c]pyrazol-1-yl)-N—((S)-2-(3,5-difluorophenyl)-1-(5-(isoquinolin-5-yl)pyrimidin-4-yl)ethyl)acetamide], the inhibition at 2 µM in the data set on HIV-IIIb came to 94%. For the same compound, the 50% cytotoxic concentration (CC50) at 5 days in the data set “in vitro” is 26500 nM.
On to `NC(=O)c1cc(-c2cccnc2[C@H](Cc2cc(F)cc(F)c2)NC(=O)[C@H]2COCCN2)ccc1F` [Example 188, (R)—N—((S)-1-(3-(3-carbamoyl-4-fluorophenyl)pyridin-2-yl)-2-(3,5-difluorophenyl)ethyl)morpholine-3-carboxamide], for which the inhibition at 2 µM in the data set on HIV-IIIb was determined as 0%. Moreover, in “in vitro”, the CC50 at 5 days was over 53000 nM.
Turning to `NC(=O)c1cc(-c2cccnc2[C@H](Cc2cc(F)cc(F)c2)NC(=O)Cn2nc(C(F)(F)F)c3c2CSC3)ccc1F` [Example 189D, (S)-5-(2-(2-(3,5-difluorophenyl)-1-(2-(3-(trifluoromethyl)-4,6-dihydro-1H-thieno[3,4-c]pyrazol-1-yl)acetamido)ethyl)pyridin-3-yl)-2-fluorobenzamide], the inhibition at 2 µM in the data set with HIV-IIIb turned out to be 48%. The compound also had a CC50 at 5 days in “in vitro” of 23300 nM.
As to `NC(=O)c1cccc(-c2cccnc2[C@H](Cc2cc(F)cc(F)c2)NC(=O)CC2C(=O)Nc3ccccc32)c1` (stereo partly drawn) [Example 191, 3-(2-((1S)-2-(3,5-difluorophenyl)-1-(2-(2-oxoindolin-3-yl)acetamido)ethyl)pyridin-3-yl)benzamide], the “% inhibition at 2 μM” value with HIV-IIIb (percent inhibition of virus-induced cell killing, from dose response curve at 2 uM drug) is recorded as 19%. Further, the CC50 at 5 days in the data set “in vitro” is over 50900 nM.
Turning to `Cc1ccc2c(c1)C(CC(=O)N[C@@H](Cc1cc(F)cc(F)c1)c1ncccc1-c1ccc(F)c(C(N)=O)c1)C(=O)N2` (stereo partly drawn) [Example 193, 5-(2-((1S)-2-(3,5-difluorophenyl)-1-(2-(5-methyl-2-oxoindolin-3-yl)acetamido)ethyl)pyridin-3-yl)-2-fluorobenzamide], the inhibition at 2 µM in the data set on HIV-IIIb came out at 2%. This compound gave a 50% cytotoxic concentration (CC50) at 5 days in the data set “in vitro” of over 53200 nM.
Take `NC(=O)c1cc(-c2cccnc2[C@H](Cc2cc(F)cc(F)c2)NC(=O)Cn2nc(C(F)(F)F)c3c2CS(=O)(=O)C3)ccc1F` [Example 194, (S)-5-(2-(2-(3,5-difluorophenyl)-1-(2-(5,5-dioxido-3-(trifluoromethyl)-4,6-dihydro-1H-thieno[3,4-c]pyrazol-1-yl)acetamido)ethyl)pyridin-3-yl)-2-fluorobenzamide]: the inhibition at 2 µM with HIV-IIIb was found to be 11%. In addition, in “in vitro”, the CC50 at 5 days is over 53200 nM.
On to `COCc1ccc(-c2cccnc2[C@H](Cc2cc(F)cc(F)c2)NC(=O)Cn2nc(C(F)F)c3c2C(F)(F)C2CC32)cc1` (stereo partly drawn) [Example 195, 2-(3-(difluoromethyl)-5,5-difluoro-3b,4,4a,5-tetrahydro-1H-cyclopropa[3,4]cyclopenta[1,2-c]pyrazol-1-yl)-N—((S)-2-(3,5-difluorophenyl)-1-(3-(4-(methoxymethyl)phenyl)pyridin-2-yl)ethyl)acetamide], for which the inhibition at 2 µM in the data set with HIV-IIIb amounted to 85%. Moreover, in the data set “in vitro”, the half-maximal cytotoxic concentration (CC50) at 5 days was determined as 23000 nM.
In the same order, the values of `NC(=O)c1cccc(-c2cccnc2[C@H](Cc2cc(F)cc(F)c2)NC(=O)CC2C(=O)Nc3ccc(F)cc32)c1` (stereo partly drawn) [Example 196, 3-(2-((1S)-2-(3,5-difluorophenyl)-1-(2-(5-fluoro-2-oxoindolin-3-yl)acetamido)ethyl)pyridin-3-yl)benzamide] are 2% and 29600 nM.
Taken in the same sequence, the figures for `NC(=O)c1cc(-c2ccc[n+]([O-])c2[C@H](Cc2cc(F)cc(F)c2)NC(=O)Cn2nc(C(F)(F)F)c3c2CCS(=O)(=O)C3)ccc1F` [Example 197, (S)-3-(3-carbamoyl-4-fluorophenyl)-2-(2-(3,5-difluorophenyl)-1-(2-(5,5-dioxido-3-(trifluoromethyl)-6,7-dihydrothiopyrano[4,3-c]pyrazol-1(4H)-yl)acetamido)ethyl)pyridine-1-oxide] were 0% and over 53200 nM.
Taken in the same sequence, the figures for `NC(=O)c1cc(-c2cccnc2[C@H](Cc2cc(F)cc(F)c2)NC(=O)Cn2nc(C(F)F)c3c2CC2CC32)ccc1F` (stereo partly drawn) [Example 198, 5-(2-((1S)-1-(2-(3-(difluoromethyl)-3b,4,4a,5-tetrahydro-1H-cyclopropa[3,4]cyclopenta[1,2-c]pyrazol-1-yl)acetamido)-2-(3,5-difluorophenyl)ethyl)pyridin-3-yl)-2-fluorobenzamide] were 112% and 45900 nM.
Regarding `NC(=O)c1cc(-c2cccnc2[C@H](Cc2cc(F)cc(F)c2)NC(=O)Cn2nc(C(F)(F)F)c3c2CC2C3C2(F)F)ccc1F` (stereo partly drawn) [Example 199E, 5-(2-((1S)-1-(2-(4,4-difluoro-3-(trifluoromethyl)-3b,4,4a,5-tetrahydro-1H-cyclopropa[3,4]cyclopenta[1,2-c]pyrazol-1-yl)acetamido)-2-(3,5-difluorophenyl)ethyl)pyridin-3-yl)-2-fluorobenzamide], in the data set on HIV-IIIb, the inhibition at 2 µM was 18%. The compound also showed a cytotoxic concentration (CC50) at 5 days in “in vitro” of 9520 nM.
Taken in the same sequence, the figures for `NC(=O)c1cc(-c2cccnc2[C@H](Cc2cc(F)cc(F)c2)NC(=O)Cn2nc3c(c2C(F)(F)F)CNC3)ccc1F` [Example 200B, (S)-5-(2-(2-(3,5-difluorophenyl)-1-(2-(3-(trifluoromethyl)-5,6-dihydropyrrolo[3,4-c]pyrazol-2(4H)-yl)acetamido)ethyl)pyridin-3-yl)-2-fluorobenzamide] were 0% and over 53200 nM.
In the same order, the values of `NC(=O)c1cc(-c2cccnc2[C@H](Cc2cc(F)cc(F)c2)NC(=O)Cc2cc(=O)[nH]c3ccccc23)ccc1F` [Example 201, (S)-5-(2-(2-(3,5-difluorophenyl)-1-(2-(2-oxo-1,2-dihydroquinolin-4-yl)acetamido)ethyl)pyridin-3-yl)-2-fluorobenzamide] are 8% and over 53200 nM.

The values are drawn from US9540343B2 (Gilead Sciences, Inc., priority 2011, dated 2017).
